Values quoted from earlier work as cited in patent US5973199A, “Hydrosoluble organic salts of creatine” (priority 1994, dated 1999).

Assays:
[1] = not given; remark: listed apart in the source

CN(CC(=O)O)C(=N)N [creatine, N-(aminoiminomethyl)-N-methylglycine]
tolerability of high doses (high doses of 5-10 g (mean body weights of 70 kg)): well tolerated | toxicity (in vivo): lack of toxicity | creatine half-life in plasma [1]: 1 to 1.5 h
